This note sets out measurements from patent publication US9115093B2, “Substituted bicyclic dihydropyrimidinones and their use as inhibitors of neutrophil elastase activity” (Boehringer Ingelheim International GmbH, priority 2013, dated 2015).

Data set [1] in a line: Drug transport across human CACO-2 cells. The format is in vitro ADME. The source says: Assay for Determination of Drug Transport Across Human CACO-2 Cells
The assay provides information on the potential of a compound to pass the cell membrane, on the extent of oral absorption as well as on whether the compound is actively transported by uptake and/or efflux transporters. For the measurement of permeability across polarized, confluent human cancer colon carcinoma cells 2 (Caco-2) cell monolayers grown on permeable filter supports are used as the in vitro absorption model. Apparent permeability coefficients (PE) of the compounds across the Caco-2 monolayers are measured (pH 7.2, 37° C.) in apical-to-basal (AB) (absorptive) and basal-to-apical (BA) (secretory) transport direction. AB permeability (PEAB) represents drug absorption from the intestine into the blood and BA permeability (PEBA) drug secretion from the blood back into the intestine via both passive permeability as well as active transport mechanisms mediated by efflux and uptake transporters that are expressed on the Caco-2 cells. The compounds are assigned to permeability/absorption classes by comparison of the AB permeabilities with the AB permeabilities of reference compounds with known in vitro permeability and oral absorption in the human. Identical or similar permeabilities in both transport directions indicate passive permeation, vectorial permeability points to additional active transport mechanisms. […] Active transport is concentration-dependently saturable.
Caco-2 cells (1−2*10^5 cells/cm^2 area) are seeded on filter inserts (Costar transwell polycarbonate or PET filters, […] pore size) and cultured (DMEM) for 10 to 25 days. Compounds are dissolved in appropriate solvent (like DMSO, 1-20 mM stock solutions). Stock solutions are diluted with HTP-4 buffer (128.13 mM NaCl, 5.36 mM KCl, 1 mM MgSO4, 1.8 mM CaCl2, 4.17 mM NaHCO3, 1.19 mM Na2HPO4×7H2O, 0.41 mM NaH2PO4×H2O, 15 mM HEPES, 20 mM glucose, pH 7.2) to prepare the transport solutions (typically […] compound, final DMSO <=0.5%). The transport solution (TL) is applied to the apical or basolateral donor side for measuring A-B or B-A permeability (3 filter replicates), respectively. The receiver side contains HTP-4 buffer supplemented with 2% BSA. Samples are collected at the start and end of experiment from the donor and at various time intervals for up to 2 hours also from the receiver side for concentration measurement by LC-MS/MS or scintillation counting. Sampled receiver volumes are is replaced with fresh receiver solution.
The apparent permeability coefficients (PEAB and PEBA) and efflux ratios (PEBA/PEAB) of selected compounds in the Caco-2 drug transport assay described above are listed in Table 17.
On the technique in general: Passage across Caco-2 layers is used to estimate intestinal permeability.

Another data set can be described thus: Aqueous solubility. It counts as physicochemical. As to conditions: McIlvaine buffer pH 6.8, 2.5% DMSO, 24 h shaking; for solubility at 24 h: McIlvaine buffer with 2.5% DMSO. As to the method:
Assay for Determination of Aqueous Solubility
The aqueous solubility of a compound is determined by comparing the amount dissolved in aqueous buffer (containing 2.5% DMSO) to the amount dissolved in an acetonitrile/water (1/1) solution. Starting from a 10 mM DMSO stock solution, aliquots are diluted with acetonitrile/water (1/1) and Mcllvaine buffer pH 6.8, respectively. After 24 h of shaking, the solutions or suspensions are filtered and analyzed by LC-UV. The amount dissolved in buffer is compared to the amount dissolved in the acetonitrile/water (1/1) solution. Solubility is measured from 0.001 to 0.125 mg/ml at a DMSO concentration of 2.5%. If more than 90% of the compound is dissolved in buffer, the value is marked with “>”.

For a further data set, the target named is T1, neutrophil elastase (Homo sapiens, UniProt P08246).
T1 sequence (P08246 30-247 limits assumed): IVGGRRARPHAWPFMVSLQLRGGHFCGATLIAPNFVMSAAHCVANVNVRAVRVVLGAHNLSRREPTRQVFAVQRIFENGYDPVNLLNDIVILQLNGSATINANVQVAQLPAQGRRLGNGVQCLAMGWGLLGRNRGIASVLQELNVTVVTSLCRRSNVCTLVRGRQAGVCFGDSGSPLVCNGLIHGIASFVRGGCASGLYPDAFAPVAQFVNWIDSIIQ
The data set can be described thus: Human Neutrophil Elastase Assay. Particulars: substrate MeOSuc-Ala-Ala-Pro-Val-AMC, pH 7.5, room temperature. The arrangement: purchased Calbiochem 324681. The format is biochemical. In short, it runs like this:
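Readout: AMC fluorescence (ex 380, em 460 nm) after 60 min room-temperature reaction with 250 nM MeOSuc-AAPV-AMC, following 15 min compound–enzyme preincubation. Buffer: Tris/NaCl pH 7.5, 0.01% BSA.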

In brackets after ≈: the same amount, converted by molar mass. Bounds are passed on as bounds.

For `N#Cc1ccc(C2C3=C(CCCC3=O)N(c3cccc(C(F)(F)F)c3)C(=O)N2C(=O)NCCO)cc1` (centres unmarked) [Example 39.3], in data set [1] (Caco-2 monolayers, apical-to-basal, pH 7.2, 37° C., read-out: PEAB), the Papp A→B at 10 nM was determined as 128 nm/s. For the same compound, the Papp B→A at 10 nM in data set [1] (Caco-2 monolayers, basal-to-apical, pH 7.2, 37° C., read-out: PEBA) was 765 nm/s. The efflux ratio at 10 nM in data set [1] (pH 7.2, Caco-2, PEBA/PEAB) worked out at 6. In “Aqueous solubility”, this compound yielded a solubility at 24 h of 6 µg/mL (≈ 12 µM). This compound came in with an IC50 on neutrophil elastase of less than 1 nM.
For the compound `CS(=O)(=O)CCNC(=O)N1C(=O)N(c2cccc(C(F)(F)F)c2)C2=C(C(=O)CCC2)C1c1ccc(C#N)cc1` (centres unmarked) [Example 39.19], in the data set “Aqueous solubility”, the solubility at 24 h stood at 9 µg/mL (≈ 16.1 µM). Further, on neutrophil elastase, the IC50 was less than 1 nM.
Turning to `CC(C)NC(=O)N1C(=O)N(c2cccc(C(F)(F)F)c2)C2=C(C(=O)CCC2)[C@H]1c1ccc(C#N)cc1S(C)(=O)=O` [Example 75.3], the Aqueous solubility in the data set “Aqueous solubility” turned out to be 9 µg/mL. The compound also yielded a concentration for half-maximal inhibition (IC50) at neutrophil elastase of less than 1 nM.
In the case of `CS(=O)(=O)c1cc(C#N)ccc1[C@@H]1C2=C(CCCC2=O)N(c2cccc(C(F)(F)F)c2)C(=O)N1C(=O)NCC(F)F` [Example 75.7], the Aqueous solubility in “Aqueous solubility” turned out to be 5 µg/mL. The IC50 against neutrophil elastase is less than 1 nM.

The term efflux ratio denotes the permeability from basolateral to apical divided by that in the opposite direction, in the common usage. Broadly, the solubility is the dissolved amount per volume that the medium holds. A low value points to little dissolved substance. In general, IC50 refers to the point on the concentration scale where inhibition reaches its midpoint. As a reminder, the Aqueous solubility is the concentration that dissolves in the medium under given conditions.
